{"source": "paper PMC5915154", "about": "“Aloe-emodin as drug candidate for cancer therapy” (Oncotarget, 2018)", "key": {"drug-resistant sublines": {"test_system": "drug-resistant sublines", "assay": "Resazurin reduction assay, range over drug-resistant and/or transfected sublines", "type": "cell-based", "details": "Homo sapiens", "description": "(§1) The cell lines used in the present work, their origins and maintenance conditions were previously reported. In brief, drug-sensitive CCRF-CEM and multidrug resistant P-glycoprotein-over-expressing CEM/ADR5000 leukemia cells, MDA-MB-231-pcDNA3 breast cancer cells and their transfectant subline MDA-MB-231-BCRP clone 23, HCT116 (p53^+/+) colon cancer cells and its knockout clone HCT116 (p53^-/-), U87.MG glioblastoma multiform cells and their transfectant subline U87.MGΔEGFR as well as HEK293 human embryonic kidney cells transfected with or without a cDNA for ABCB5 were used. The human peripheral mononuclear cells (PMNC) were isolated from fresh blood samples of a healthy donor by using Histopaque® (Sigma-Aldrich, Taufkirchen, Germany).\n(§2) Resazurin reduction assay was conducted to test the cytotoxicity of the compounds. This assay is based on the reduction of resazurin to resorufin by viable cells. […] Briefly, aliquots of 0.5×10^4 adherent cells which were allowed to attach overnight and 1×10^4 suspension cells per well were seeded in 96-well-plates with or without the addition of varying concentrations of the test substance to get a total volume of 200 μL/well. After 72 h incubation and addition of resazurin (Sigma-Aldrich) for 4 h, staining was measured by an Infinite M2000 ProTM plate reader (Tecan, Germany) using an excitation wavelength of 544 nm and an emission wavelength of 590 nm. […]"}, "[1]": {"test_system": "mRNA expression (DUSP6, HHEX, MCMDC2, CRCP) in CCRF-CEM cells", "assay": "Microarray-based mRNA expression profiling", "type": "cell-based, human", "details": "CCRF-CEM treated with IC50 for 48 h vs DMSO; FC: fold change", "description": "We performed microarray hybridizations to find clues on the possible mechanisms of action of Aloe-emodin. CCRF-CEM cells were treated with the IC50 of Aloe-emodin or DMSO for 48 h. Using Chipster software, 1712 genes were deregulated upon Aloe-emodin treatment in comparison with DMSO treatment as control. These genes were subsequently subjected to Ingenuity Pathway Analysis (IPA) to obtain profiles of possibly affected signaling pathways. The most pronounced molecular and cellular functions identified by IPA were: cell death and survival, cellular growth and proliferation, cellular development, gene expression, cellular function and maintenance (Figure 4A).\nTotal RNA was isolated by InviTrap Spin Universal RNA Mini kit (Stratec Molecular, Berlin, Germany) according to the manufacturer’s instructions. The quality control of total RNA, probe labeling, hybridization, scanning and data analysis was performed in the Genomics and Proteomics Core Facility at the German Cancer Research Center (DKFZ, Heidelberg, Germany). Details have been previously described. The Chipster software was used to filter the set of differentially expressed genes obtained from microarray hybridization (http://chipster.csc.fi/) with a p value lower than 0.05. These filtered genes with fold-changes of more than 1-fold were selected for Ingenuity Pathways Analysis Software (http://www.ingenuity.com/ Ingenuity Systems, Redwood City, CA, USA) to obtain profiles of genetic networks and signaling pathways. The protocol has been recently reported by us."}, "U87.MGΔEGFR cells": {"test_system": "U87.MGΔEGFR cells", "assay": "Resazurin reduction assay, U87.MGΔEGFR", "type": "cell-based", "details": "Homo sapiens, 72 h", "description": "as §1, §2"}, "[2]": {"test_system": "drug-sensitive CCRF-CEM leukemia cells", "assay": "Resazurin reduction assay, CCRF-CEM", "type": "cell-based", "details": "Homo sapiens, 72 h", "description": "as §1\nResazurin reduction assay was conducted to test the cytotoxicity of the compounds. This assay is based on the reduction of resazurin to resorufin by viable cells. […] Briefly, aliquots of 0.5×10^4 adherent cells which were allowed to attach overnight and 1×10^4 suspension cells per well were seeded in 96-well-plates with or without the addition of varying concentrations of the test substance to get a total volume of 200 μL/well. After 72 h incubation and addition of resazurin (Sigma-Aldrich) for 4 h, staining was measured by an Infinite M2000 ProTM plate reader (Tecan, Germany) using an excitation wavelength of 544 nm and an emission wavelength of 590 nm. Each assay was independently performed for at least three times, with six parallel replicates each. The protocol has been recently reported. Fifty percent inhibition concentrations (IC50) represent the drug concentrations required to inhibit 50% of cell proliferation, which were fitted with nonlinear regression using GraphPad® Prism7."}, "CCRF-CEM cells [3]": {"test_system": "CCRF-CEM cells", "assay": "Annexin V/PI detection of apoptosis and necrosis", "type": "cell-based, human", "description": "A commercial annexin V/PI detection apoptosis kit was used to detect early apoptosis and necrosis according to the manufacturer’s instructions (Life Technologies, Carlsbad, CA, USA). Annexin V is a calcium-dependent phospholipid-binding protein, which binds to phosphatidylserine (PS). PS is predominantly located at the inner side of the plasma membrane under normal conditions and moves to outer surface of the membrane upon the onset of early apoptosis. This can be detected FITC-labeled annexin V. PI is a marker of late apoptosis and necrosis. We treated aliquots of 1×10^6 CCRF-CEM cells with 0.5-, 1-, 2- and 4-fold IC50 of Aloe-emodin for 48, 72 or 96 h, respectively. After washing the cells with PBS, they were stained with annexin V/FITC at room temperature for 10-15 min. Subsequently, cells were washed again and stained with PI in the dark. Then, the results were analyzed by a BD Accuri™ C6 flow cytometer at excitation wavelength 488 nm and emission wavelength 530 nm to record annexin V/FITC signals. The fluorescence of PI was detected at 488 nm excitation and was measured by a 610/20 nm band pass filter. At least three independent experiments were performed.."}, "CCRF-CEM cells [4]": {"test_system": "CCRF-CEM cells", "assay": "Alkaline comet assay (DNA damage)", "type": "cell-based, human", "details": "1-, 2- or 4-fold IC50, 24 h", "description": "The OxiSelect™ Comet Assay Kit (Cell Biolabs/Biocat, Heidelberg, Germany) was used to detect DNA damage according to the manufacturer’s instructions. CCRF-CEM cells treated with 1-, 2- and 4-fold IC50 of Aloe-emodin for 24 h. Then, the cells were mixed with agarose and applied to OxiSelect™ Comet Assay slides. These slides including the embedded cells were treated with lysis buffer and alkaline solution. Subsequently, electrophoresis was performed on the slide with a voltage of 22 V for 30 min corresponding to 1 V/cm of the electrophoresis chamber. These slides were washed with distilled water. After fixation with 70% ethanol, the slides were stained with by a fluorescent DNA binding dye.\nThen, the slides were photographed by a fluorescence microscope (EVOSs FL Cell Image System, Thermo Fisher Scientific Waltham, USA) using a FITC filter with an excitation wavelength of 490 nm and emission at 520 nm. At least 50 cells per image were randomly selected and analyzed with the OpenComet software (http://www.cometbio.org). Percentages of tail DNA, tail moment and olive moment were assessed as parameters for DNA damage. The statistical significance was determined by one-way ANOVA with Tukey’s multiple comparison test."}, "[5]": {"test_system": "MDA-MB-231-pcDNA breast cancer cells", "assay": "Resazurin reduction assay, MDA-MB-231-pcDNA", "type": "cell-based", "details": "Homo sapiens, 72 h", "description": "as §1, §2"}, "[6]": {"test_system": "Human peripheral mononuclear cells (PMNC)", "assay": "Toxicity in normal cells, resazurin assay", "type": "cell-based", "details": "PMNC of a healthy donor, all concentrations tested 0.001-100 μM", "description": "We also investigated Aloe-emodin’s toxicity towards normal cells. Human peripheral mononuclear cells (PMNC) were isolated from fresh blood samples of a healthy donor and tested against various concentrations of Aloe-emodin ranging from 0.001-100 μM.\nNormal human peripheral mononuclear cells (PMNC) were isolated from fresh blood samples of a healthy donor using Histopaque® (Sigma-Aldrich). In brief, 6 mL blood were layered with 6 mL Histopaque® and centrifuged (400 × g) for 30 min at 4°C. The opaque interface containing lymphocytes and other mononuclear cells was transferred into a new tube and washed several times. Isolated PMNCs were kept in Panserin 413 medium (PAN-Biotech, Aidenbach, Germany) supplemented with 2 % phytohemagglutinin M (PHA-M, Life Technologies, Darmstadt, Germany).\nResazurin reduction assay was conducted to test the cytotoxicity of the compounds. This assay is based on the reduction of resazurin to resorufin by viable cells. […] After 72 h incubation and addition of resazurin (Sigma-Aldrich) for 4 h, staining was measured by an Infinite M2000 ProTM plate reader (Tecan, Germany) using an excitation wavelength of 544 nm and an emission wavelength of 590 nm. […]"}}}
{"smiles": "O=C1c2cccc(O)c2C(=O)c2c(O)cc(CO)cc21", "note": "[Aloe-emodin]", "values": [{"measurement": "IC50", "setting": "drug-resistant sublines", "result": "11.2 to 33.8", "unit": "µM"}, {"measurement": "Microarray data (FC), CRCP", "setting": "[1]", "result": -2.219, "unit": "FC"}, {"measurement": "Microarray data (FC), DUSP6", "setting": "[1]", "result": 2.403, "unit": "FC"}, {"measurement": "Microarray data (FC), HHEX", "setting": "[1]", "result": 2.321, "unit": "FC"}, {"measurement": "Microarray data (FC), MCMDC2", "setting": "[1]", "result": -2.227, "unit": "FC"}, {"measurement": "IC50", "setting": "U87.MGΔEGFR cells", "result": 33.8, "unit": "µM"}, {"measurement": "IC50", "setting": "[2]", "result": 9.87, "unit": "µM"}, {"measurement": "apoptotic or necrotic cell death", "setting": "CCRF-CEM cells [3]; 2- or 4-fold IC50, 96 h", "result": "early and late apoptosis as well as early and late necrosis"}, {"measurement": "apoptotic or necrotic cell death", "setting": "CCRF-CEM cells [3]; 4-fold IC50, 72 h", "result": "early and late apoptosis as well as early and late necrosis"}, {"measurement": "DNA damage (comet tails, tail DNA %, tail and olive tail moment)", "setting": "CCRF-CEM cells [4]", "result": "induced DNA damage in a dose-dependent manner"}, {"measurement": "IC50", "setting": "[5]", "result": 22.3, "unit": "µM"}, {"measurement": "cytotoxic activity towards normal cells", "setting": "[6]", "result": "did not show cytotoxic activity"}]}
